One data set addresses human IKCa1 channel (Homo sapiens, UniProt O15554). Put plainly: cell-based. To be noted: for IKCa1 inhibition compared with clotrimazole: refers to TABLE 8. On the procedure:
COS-7 cells, maintained in Dulbecco's modified Eagle's medium (DMEM) containing 10% heat-inactivated fetal calf serum, 4 mM L-glutamine and 1 mM Na^+ pyruvate, were transiently transfected with hlKCa1.
Electrophysiological experiments were carried out in the whole-cell configuration of the patch-clamp technique using an EPC-9 amplifier (HEKA Elektronik, Lambrecht Germany) interfaced to a computer running acquisition and analysis software (Pulse and Pulsfit; HEKA Elektronik). Pipettes were pulled from soft glass capillaries, coated with Sylgard (Dow-Corning, Midland, Mich.), and fire polished to resistances of 2.0–4.5 MΩ measured in the bath. COS-7 cells were trypsinized and plated on glass coverslips 3 h before measurement. […] To prevent activation of the native chloride channels in COS-7 cells an aspartate Ringer solution was used as an external solution (160 mM Na^+ aspartate, 4.5 mM KCl, 2 mM CaCl2, 1 mM MgCl2, 5 mM HEPES, adjusted to pH 7.4 with NaOH, with an osmolarity of 290–310 mosM). 200 ms voltage ramps from −120 mV to 40 mV every 10 s were used. The holding potential in all experiments was −80 mV. Series resistance compensation was not employed. The reduction of slope conductance at −80 mV was used to determine the Kd-value by fitting the values to the Hill equation with a Hill coefficient of unity.

[1] abbreviates: read-out: Kd for block of IKCa1, hIKCa1 in COS-7 cells, reduction of slope conductance at −80 mV, 1 μM free Ca++ in pipette.
[2] abbreviates: hIKCa1 in COS-7 cells, reduction of slope conductance at −80 mV, 1 μM free Ca++ in pipette.

Where two headings read alike, the source gives them in different places.

Chain of human IKCa1 channel (O15554 whole entry): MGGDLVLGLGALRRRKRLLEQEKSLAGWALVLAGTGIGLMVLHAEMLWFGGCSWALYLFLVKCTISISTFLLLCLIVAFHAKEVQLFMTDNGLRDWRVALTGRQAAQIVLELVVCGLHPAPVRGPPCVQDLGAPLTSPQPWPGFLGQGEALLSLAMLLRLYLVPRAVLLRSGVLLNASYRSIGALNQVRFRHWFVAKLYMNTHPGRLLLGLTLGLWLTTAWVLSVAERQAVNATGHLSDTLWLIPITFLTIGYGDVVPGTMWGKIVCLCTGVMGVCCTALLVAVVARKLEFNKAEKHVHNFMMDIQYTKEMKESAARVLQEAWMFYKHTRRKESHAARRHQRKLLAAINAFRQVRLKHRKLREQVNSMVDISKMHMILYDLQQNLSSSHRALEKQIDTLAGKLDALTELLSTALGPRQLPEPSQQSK

The term Kd denotes the concentration at which binding is half-saturated. `CCOC(=O)C(C(=O)OCC)C(c1ccccc1)(c1ccccc1)c1ccccc1Cl` [Compound T77]: at human IKCa1 channel (setting [1]), the Kd stood at 800 nM.

As to `Cc1ccn(C(c2ccccc2)(c2ccccc2)c2ccccc2Cl)n1` [Compound T63, 1-[(2-Chlorophenyl)diphenylmethyl]-3-methyl-1H-pyrazole], binding on human IKCa1 channel was characterised by a dissociation constant (Kd) of 1100 nM. As to `OC(c1ccccc1)(c1ccccc1)c1ccccc1C(F)(F)F` [Compound T54, Diphenyl(2-trifluoromethylphenyl) methanol], the Kd on human IKCa1 channel turned out to be 700 nM.

For the compound `O=C1c2ccccc2C(=O)N1C(c1ccccc1)(c1ccccc1)c1ccccc1Cl` [Compound T71, 2-[(2-Chlorophenyl)diphenylmethyl]-1H-isoindole-1,3(2H)-dione], the “Kd for block of IKCa1” value on human IKCa1 channel (setting [2]) was “No effect at 10 μM”.

Consider `c1ccc(C(c2ccccc2)(c2cccs2)n2ccnc2)cc1` [Compound T37, 1-[Diphenyl(2-thienyl)methyl]-1H-imidazole], for which binding on human IKCa1 channel was characterised by a dissociation constant (Kd) of 1000 nM. Take `Clc1ccc(C(Nc2nccs2)(c2ccccc2)c2ccccc2)cc1` [Compound T64, N-[(4-Chlorophenyl)diphenylmethyl]-N-(1,3-thiazol-2yl)amine]: the Kd at human IKCa1 channel turned out to be 20000 nM. A word on the melting point: it is the temperature of the solid-liquid transition. `Clc1ccccc1C(c1ccccc1)(c1ccccc1)n1cccc1` returned a melting point of 184 °C. In the case of `Fc1ccccc1C(c1ccccc1)(c1ccccc1)n1cccn1` [Compound T46, 1-[(2-Fluorophenyl)diphenylmethyl]-1H-pyrazole], on human IKCa1 channel, the Kd amounted to 40 nM and the “IKCa1 inhibition compared with clotrimazole” value is “more potent inhibitors of IKCa1 channels than clotrimazole”. For `OC(c1ccccc1)(c1cccc(Cl)c1)c1cccc(Cl)c1` [Compound T5, Bis-(3-chlorophenyl)phenyl methanol], the “Kd for block of IKCa1” value on human IKCa1 channel (setting [2]) is “No effect at 1 μM”. As to `COc1ccc(C(C#N)(c2ccc(OC)cc2)c2ccc(OC)cc2)cc1` [Compound T18], the Kd at human IKCa1 channel (setting [1]) is 40000 nM. Still for that read-out and setting: the figure for `NC(c1ccccc1)(c1ccccc1)c1ccccc1F` [Compound T47, (2-Fluorophenyl)diphenylmethyl amine] is 2000 nM.

Regarding `C[n+]1ccc(C(O)(c2ccccc2)c2ccccc2)cc1` [Compound T8], on human IKCa1 channel (setting [2]), the “Kd for block of IKCa1” value is “No effect at 10 μM”.

Regarding `OC(c1ccccc1)(c1ccc(F)cc1)c1cccs1` (stereo not shown) [Compound T14, (4-Fluorophenyl)(2-thienyl)phenyl methanol], the Kd at human IKCa1 channel stood at 800 nM.

Consider `c1ccc(C(NCCN(CCNC(c2ccccc2)(c2ccccc2)c2ccccc2)CCNC(c2ccccc2)(c2ccccc2)c2ccccc2)(c2ccccc2)c2ccccc2)cc1` [Compound T20], for which the “Kd for block of IKCa1” value on human IKCa1 channel (setting [2]) is “No effect at 1 μM”. For the compound `Clc1ccc(C(c2ccccc2)(c2ccccc2)n2cccn2)cc1` [Compound T13, 1[(4-Chlorophenyl)diphenylmethyl]-1H-pyrazole], the Kd at human IKCa1 channel was 90 nM. `NC(=O)NC(c1ccccc1)(c1ccccc1)c1ccccc1Cl` showed a melting point of 243 °C. Take `c1ccc(C(c2ccccc2)(c2cccs2)n2cccn2)cc1` [Compound T38, 1-[Diphenyl(2-thienyl)methyl]-1H-pyrazole]: on human IKCa1 channel, binding was put at a Kd of 1100 nM.

Compound `N#CC(c1ccccc1)(c1ccccc1)c1ccc(Cl)cc1` [Compound T26, 2-(4-Chlorophenyl)-2,2-diphenylacetonitrile] yielded a Kd at human IKCa1 channel of 750 nM. Still for that read-out and setting: as for `O=[N+]([O-])c1ccc(S(=O)(=O)c2cnc(NC(c3ccccc3)(c3ccccc3)c3ccccc3Cl)s2)cc1` [Compound T81, N-{5-[(4-Nitrophenyl)sulfonyl]-1,3-thiazol-2yl}-N[(2-chlorophenyl)-(diphenyl)-methyl]amine], the figure is 15000 nM; as for `Clc1ccccc1C(Nc1ncccn1)(c1ccccc1)c1ccccc1` [Compound T68, N-[(2-Chlorophenyl)diphenylmethyl]-N-(2-pyrimidyl)amine], 900 nM.

With `NC(c1ccccc1)(c1ccccc1)c1ccccc1C(F)(F)F` [Compound T82, (2-Trifluoromethylphenyl)-diphenylmethyl amine], the Kd on human IKCa1 channel (setting [1]) amounted to 2500 nM.

The compound `OC(c1ccccc1)(c1ccccc1)c1ccc(C(F)(F)F)cc1` [Compound T55, Diphenyl(4-trifluoromethylphenyl) methanol] displayed a Kd at human IKCa1 channel of 820 nM. Turning to `c1ccc(C(c2ccccc2)(c2ccccc2)n2ccnc2)cc1` [Compound T86], the Kd on human IKCa1 channel (setting [1]) amounted to 1500 nM. On human IKCa1 channel, `FC(F)(F)c1ccn(C(c2ccccc2)(c2ccccc2)c2ccccc2Cl)n1` [Compound T65, 1-[(2-Chlorophenyl)diphenylmethyl]-3-(trifluorormethyl)-1H-pyrazole] had a Kd of 2000 nM.

In the case of `COc1ccc(C(O)(c2ccccc2)c2ccc(OC)cc2)cc1` [Compound T15, Bis-(4-methoxyphenyl)phenyl methanol], the Kd on human IKCa1 channel is 10000 nM. Consider `COc1ccc(C(c2ccc(OC)cc2)(c2ccc(OC)cc2)n2cccn2)cc1` [Compound T19, 1-[Tris(4-methoxyphenyl)methyl]-1H-pyrazole], for which the “Kd for block of IKCa1” value on human IKCa1 channel (setting [2]) is “No effect at 1 μM”. Consider `OC(c1ccccc1)(c1ccccc1)c1cccc(C(F)(F)F)c1` [Compound T56, Diphenyl(3-trifluoromethylphenyl) methanol], for which, on human IKCa1 channel, the Kd was 650 nM. On human IKCa1 channel, `FC(F)(F)c1ccccc1C(Nc1nccs1)(c1ccccc1)c1ccccc1` [Compound T72, N-Diphenyl[2-(trifluoromethyl)phenyl]-methyl-N-(1,3-thiazol-2yl)amine] registered a Kd of 25000 nM. As for `C[n+]1ccn(C(c2ccccc2)(c2ccccc2)c2ccccc2Cl)c1` [Compound T30], the Kd on human IKCa1 channel (setting [1]) came out at 10000 nM. `Cc1csc(NC(c2ccccc2)(c2ccccc2)c2ccccc2Cl)n1` [Compound T79, N-[(2-Chlorophenyl)diphenylmethyl]-N-(4-methyl-1,3-thiazol-2yl)amine] had a Kd at human IKCa1 channel of 8000 nM. Still for that read-out and setting: the figure for `Clc1ccccc1C(Nc1ccccn1)(c1ccccc1)c1ccccc1` [Compound T69, N-[(2-Chlorophenyl)diphenylmethyl]-N-(2-pyridyl)amine] is 28000 nM.

Regarding `FC(F)(F)c1ccn(C(c2ccccc2)(c2ccccc2)c2ccccc2C(F)(F)F)n1` [Compound T59, 1-{Diphenyl[2-(trifluoromethyl)-phenyl]methyl}-3-(trifluoromethyl)-1H-pyrazole], the affinity on human IKCa1 channel, expressed as Kd, was 25000 nM. Same read-out and setting: as for `Fc1ccccc1C(Nc1nccs1)(c1ccccc1)c1ccccc1` [Compound T78, N-[(2-Fluorophenyl)diphenylmethyl]-N-(1,3-thiazol-2yl)amine], the figure is 12000 nM. As to `Clc1ccccc1C(c1ccccc1)(c1ccccc1)n1cnnn1` [Compound T84, 1-[(2-Chlorophenyl)diphenylmethyl]-1H-1,2,3,4-tetrazole], on human IKCa1 channel, the Kd was 45 nM and the “IKCa1 inhibition compared with clotrimazole” value is listed as “more potent inhibitors of IKCa1 channels than clotrimazole”. Compound `FC(F)(F)c1ccccc1C(Nc1ncccn1)(c1ccccc1)c1ccccc1` [Compound T73, N-Diphenyl[2-(trifluoromethyl)phenyl]-methyl-N-(2-pyrimidinyl)amine] yielded a Kd at human IKCa1 channel of 15000 nM. As to `FC(F)(F)c1ccc(C(Nc2nccs2)(c2ccccc2)c2ccccc2)cc1` [Compound T61, N-Diphenyl[4-(trifluoromethyl)phenyl]-methyl-N-(1,3-thiazol-2-yl)amine], on human IKCa1 channel, the affinity, expressed as Kd, was 35000 nM. Still for that read-out and setting: the figure for `COc1ccc(C(O)(c2ccc(OC)cc2)c2ccc(OC)cc2)cc1` [Compound T16, Tris-(4-methoxyphenyl) methanol] is 10000 nM; for `Cc1cc(C)n(C(c2ccccc2)(c2ccccc2)c2ccccc2Cl)n1` [Compound T62, 1-[(2-Chlorophenyl)diphenylmethyl]-3,5-dimethyl-1H-pyrazole] it is 12000 nM. Still for that read-out and setting: as for `FC(F)(F)c1ccc(C(c2ccccc2)(c2ccccc2)n2cccn2)cc1` [Compound T60, 1-{Diphenyl[4-(trifluoromethyl)-phenyl]methyl}-1H-pyrazole], the figure is 1500 nM. As for `NC(c1ccccc1)(c1ccccc1)c1ccccc1Cl` [Compound T41, (2-chlorophenyl)diphenylmethyl amine], the dissociation constant (Kd) on human IKCa1 channel (setting [1]) worked out at 5000 nM.

On to `OC(c1ccccc1)(c1cccs1)c1ccccc1Cl` (stereo not shown) [Compound T43, (2-Chlorophenyl)(2-thienyl)phenyl methanol], for which, at human IKCa1 channel, binding was put at a Kd of 750 nM. Consider `NC(c1ccccc1)(c1ccccc1)c1ccc(F)cc1` [Compound T42, (4-Fluorophenyl)diphenylmethyl amine], for which, on human IKCa1 channel (setting [1]), the Kd stood at 5000 nM. On to `Clc1ccc(C(Nc2ccncc2)(c2ccccc2)c2ccccc2)cc1` [Compound T70, N-[(4-Chlorophenyl)diphenylmethyl]-N-(4-pyridyl)amine], for which binding at human IKCa1 channel was put at a Kd of 11000 nM. As for `Clc1ccccc1C(c1ccccc1)(c1ccccc1)n1cnc2ccccc21` [Compound T85, 1-[(2-Chlorophenyl)diphenylmethyl]-1H-1,3-benzimidazole], the “Kd for block of IKCa1” value on human IKCa1 channel (setting [2]) is “No effect at 1 μM”.

For `COc1ccc(C(C#N)(c2ccccc2)c2ccc(OC)cc2)cc1` [Compound T17], the Kd at human IKCa1 channel (setting [1]) is 35000 nM. `c1ccc(C(Nc2nccs2)(c2ccccc2)c2ccccc2)cc1`: the melting point worked out at 213 °C. For the compound `Fc1ccc(C(c2ccccc2)(c2ccccc2)n2cccn2)cc1` [Compound T28, 1-[(4-Fluorophenyl)diphenylmethyl]-1H-pyrazole], the affinity at human IKCa1 channel, expressed as Kd, was 200 nM.

For the origin of these results see US7235577B1 (priority 2000, dated 2007).
